Counter-ions that a name gives are not always drawn.

The melting point is the temperature of the solid-liquid transition. The Ki is a dissociation constant, usually derived from enzyme kinetics or from competition with a known ligand. Read a high Ki as lower affinity.

human adenosine A2A receptors, sequence (P29274 whole entry): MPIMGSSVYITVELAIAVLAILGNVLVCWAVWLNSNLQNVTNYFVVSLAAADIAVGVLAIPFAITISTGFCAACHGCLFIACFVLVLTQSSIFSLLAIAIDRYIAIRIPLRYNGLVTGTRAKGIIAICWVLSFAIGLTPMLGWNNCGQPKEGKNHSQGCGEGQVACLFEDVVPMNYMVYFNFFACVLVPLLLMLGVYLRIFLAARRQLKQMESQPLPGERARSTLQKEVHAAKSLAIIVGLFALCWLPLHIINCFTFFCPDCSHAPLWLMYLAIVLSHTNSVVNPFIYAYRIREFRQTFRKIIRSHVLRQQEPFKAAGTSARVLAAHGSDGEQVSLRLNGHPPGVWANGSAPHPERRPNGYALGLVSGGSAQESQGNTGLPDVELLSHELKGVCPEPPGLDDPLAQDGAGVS

Test system in one data set: not given
Assay: not given
`Cc1cc(Cn2nnc3c(-c4ccco4)nc(N)nc32)cc(C)c1[N+](=O)[O-]` [Example 259, 3-(3,5-dimethyl-4-nitrobenzyl)-7-(2-furyl)-3H-[1,2,3]triazolo[4,5-d]pyrimidine-5-amine]: the melting point lay within 228.4 to 228.5 °C. Turning to `Nc1nc(-c2ccco2)c2nnn(Cc3cc([N+](=O)[O-])cc([N+](=O)[O-])c3)c2n1`, the melting point lay within 264.5 to 264.8 °C. On the same count and under the same terms, as for `Nc1nc(-c2ccco2)c2nnn(Cc3ccc4nn[nH]c4c3)c2n1` [Example 158, 3-(1H-Benzotriazol-5-ylmethyl)-7-(2-furyl)-3H-[1,2,3]triazolo[4,5-d]pyrimidine-5-amine], the figure is > 300 °C (dec.); as for `Cc1ccc(-c2nc(N)nc3c2nnn3Cc2cccs2)o1` [Example 61, 7-(5-methyl-2-furyl)-3-(2-thienylmethyl)-3H-[1,2,3]triazolo[4,5-d]pyrimidine-5-amine], 193.8 to 194.1 °C. The same measure, in the same setting: as for `CC(C)(C)OC(=O)n1ccc2cc(Cn3nnc4c(-c5ccco5)nc(N)nc43)ccc21` [Example 142, tert-butyl 5-(5-amino-7-(2-furyl)-3H-[1,2,3]triazolo[4,5-d]pyrimidine-3-ylmethyl)indole-1-carboxylate], the figure is 189 to 189.1 °C; as for `Cc1nc(Cn2nnc3c(-c4ccco4)nc(N)nc32)cs1` [Example 100, 7-(2-furyl)-3-(2-methylthiazol-4-ylmethyl)-3H-[1,2,3]triazolo[4,5-d]pyrimidine-5-amine], 285.7 to 285.9 °C. In turn, `Nc1nc(-c2ccco2)c2nnn(CC(=O)NCc3ccccn3)c2n1` [Example 53, (5-amino-7-(2-furyl)-3H-[1,2,3]triazolo[4,5-d]pyrimidin-3-yl)-N-(2-pyridylmethyl)acetamide] showed a melting point of 256.1 to 256.4 °C. As to `Nc1nc(-c2ccco2)c2nnn(CC(=O)O)c2n1` [Example 26, (5-Amino-7-(2-furyl)-3H-[1,2,3]triazolo[4,5-d]pyrimidin-3-yl)acetic acid], the melting point was 291 to 291.1 °C. For the compound `Nc1nc(-c2ccco2)c2nnn(Cc3ccc4cc[nH]c4c3)c2n1` [Example 152, 7-(2-Furyl)-3-(6-indolylmethyl)-3H-[1,2,3]triazolo[4,5-d]pyrimidine-5-amine], the melting point lay in the range of 298.9 to 299 °C. In the case of `CC(C)(C)OC(=O)Oc1cc(F)c(Cn2nnc3c(-c4ccco4)nc(N)nc32)c(F)c1` [Example 148, tert-butyl (4-(5-amino-7-(2-furyl)-3H-[1,2,3]triazolo[4,5-d]pyrimidine-3-ylmethyl)-3,5-difluorophenyl)carbonate], the melting point lay in the range of 259.8 to 259.9 °C. On the same count and under the same terms, as for `CC(=O)NCc1cccc(Cn2nnc3c(-c4ccco4)nc(N)nc32)c1` [Example 68, N-(3-(5-amino-7-(2-furyl)-3H-[1,2,3]triazolo[4,5-d]pyrimidin-3-ylmethyl)benzyl)acetamide], the figure is 228.1 to 229.3 °C; as for `Nc1nc(-c2ccco2)c2nnn(Cc3ccc(N)c(O)c3)c2n1` [Example 173, 3-(4-amino-3-hydroxybenzyl)-7-(2-furyl)-3H-[1,2,3]triazolo[4,5-d]pyrimidine-5-amine], 239.6 to 239.8 °C; as for `CC(c1ccc(C(F)(F)F)cc1)n1nnc2c(-c3ccco3)nc(N)nc21` (centres unmarked) [Example 256, 7-(2-furyl)-3-(1-(4-frifluoromethylphenyl)ethyl)-3H-[1,2,3]triazolo[4,5-d]pyrimidine-5-amine], 167.6 to 168.1 °C.

With `Nc1cccc(Cn2nnc3c(-c4nccs4)nc(N)nc32)c1` [Example 83, 3-(3-aminobenzyl)-7-(2-thiazolyl)-3H-[1,2,3]triazolo[4,5-d]pyrimidine-5-amine], the melting point fell in the range of 252.8 to 253.3 °C. In the case of `Nc1nc(-c2ccco2)c2nnn(Cc3ccc(N)c(F)c3)c2n1` [Example 147, 3-(4-amino-3-fluorobenzyl)-7-(2-furyl)-3H-[1,2,3]triazolo[4,5-d]pyrimidine-5-amine], the melting point was > 200 °C (dec.).

`Cc1nc(-c2nc(N)nc3c2nnn3Cc2cccc(N)c2)sc1C` [Example 240, 3-(3-aminobenzyl)-7-(4,5-dimethyl-2-thiazolyl)-3H-[1,2,3]triazolo[4,5-d]pyrimidine-5-amine] came in with a melting point of 254.3 to 254.5 °C. Compound `COc1ccc(Cn2nnc3c(-c4ccco4)nc(N)nc32)cc1OC` (as salt: trifluoroacetate) [Example 122, 3-(3,4-dimethoxybenzyl)-7-(2-furyl)-3H-[1,2,3]triazolo[4,5-d]pyrimidine-5-amine trifluoroacetate salt] came in with a melting point of 227.5 to 228.5 °C. The same measure, in the same setting: as for `COc1cc([N+](=O)[O-])ccc1Cn1nnc2c(-c3ccco3)nc(N)nc21` [Example 159, 7-(2-furyl)-3-(2-methoxy-4-nitrobenzyl)-3H-[1,2,3]triazolo[4,5-d]pyrimidine-5-amine], the figure is 235.9 to 237.8 °C; as for `Nc1nc(-c2ccco2)c2nnn(Cc3cccc(CN4C(=O)c5ccccc5C4=O)n3)c2n1` [Example 164, 7-(2-furyl)-3-(6-phthalimidomethyl-2-pyridylmethyl)-3H-[1,2,3]triazolo[4,5-d]pyrimidine-5-amine], 120.1 to 121 °C. Regarding `Cc1cnc(-c2nc(N)nc3c2nnn3Cc2ccccc2F)s1` [Example 38, 3-(2-fluorobenzyl)-7-(5-methyl-2-thiazolyl)-3H-[1,2,3]triazolo[4,5-d]pyrimidine-5-amine], the melting point lay in the range of 242 to 242.1 °C. Regarding `Cc1ccc(Cn2nnc3c(-c4ccco4)nc(N)nc32)cc1N` [Example 90, 3-(3-amino-4-methylbenzyl)-7-(2-furyl)-3H-[1,2,3]triazolo[4,5-d]pyrimidine-5-amine], the melting point fell in the range of 268.5 to 269.1 °C. Take `Nc1nc(-c2ccco2)c2nnn(Cc3cccc4cc[nH]c34)c2n1` [Example 154, 7-(2-furyl)-3-(7-indolylmethyl)-3H-[1,2,3]triazolo[4,5-d]pyrimidine-5-amine]: the melting point is 295.3 to 295.5 °C. Still for that read-out and setting: as for `Nc1cccc(Cn2nnc3c(-c4ccc[nH]4)nc(N)nc32)c1` [Example 191, 3-(3-aminobenzyl)-7-(1H-pyrrol-2-yl)-3H-[1,2,3]triazolo[4,5-d]pyrimidine-5-amine], the figure is 186.1 to 189.1 °C; as for `COCc1cccc(Cn2nnc3c(-c4ccco4)nc(N)nc32)n1` [Example 112, 7-(2-furyl)-3-(6-methoxymethyl-2-pyridylmethyl)-3H-[1,2,3]triazolo[4,5-d]pyrimidine-5-amine], 190.4 to 191.4 °C.

For the compound `Cc1cccc(Cn2nnc3c(-c4ccco4)nc(N)nc32)n1` [Example 37, 7-(2-furyl)-3-(6-methyl-2-pyridylmethyl)-3H-[1,2,3]triazolo[4,5-d]pyrimidine-5-amine], the melting point was in the range of 200.8 to 218.9 °C. On to `CCc1cccc(Cn2nnc3c(-c4ccco4)nc(N)nc32)n1` [Example 135, 3-(6-ethyl-2-pyridylmethyl)-7-(2-furyl)-3H-[1,2,3]triazolo[4,5-d]pyrimidine-5-amine], for which the melting point lay within 208.6 to 208.8 °C. Same read-out and setting: as for `Cc1ccc(-c2nc(N)nc3c2nnn3Cc2ccc(N)c(C)c2)o1` [Example 124, 3-(4-amino-3-methylbenzyl)-7-(5-methyl-2-furyl)-3H-[1,2,3]triazolo[4,5-d]pyrimidine-5-amine], the figure is 215.7 to 216.7 °C; as for `Cc1ccc(-c2nc(N)nc3c2nnn3Cc2ccc(N)c(F)c2)o1` [Example 174, 3-(4-amino-3-fluorobenzyl)-7-(5-methyl-2-furyl)-3H-[1,2,3]triazolo[4,5-d]pyrimidine-5-amine], > 200 °C (dec.). For `Nc1nc(-c2ccco2)c2nnn(Cc3cccc4[nH]ccc34)c2n1` [Example 139, 7-(2-furyl)-3-(4-indolylmethyl)-3H-[1,2,3]triazolo[4,5-d]pyrimidine-5-amine], the melting point was in the range of 192.3 to 193.5 °C. Same read-out and setting: as for `CC(C)(C)OC(=O)n1ccc2ccc(Cn3nnc4c(-c5ccco5)nc(N)nc43)cc21` [Example 146, tert-butyl 6-(5-amino-7-(2-furyl)-3H-[1,2,3]triazolo[4,5-d]pyrimidine-3-ylmethyl)indole-1-carboxylate], the figure is 180 to 180.5 °C; as for `Nc1nc(-c2ccco2)c2nnn(CC(=O)Nc3ccccc3)c2n1` [Example 54, (5-amino-7-(2-furyl)-3H-[1,2,3]triazolo[4,5-d]pyrimidin-3-yl)-N-phenylacetamide], 292.2 to 292.3 °C; as for `CC(=O)NCc1cccc(Cn2nnc3c(-c4ccco4)nc(N)nc32)n1` [Example 177, 3-(6-Acetamidomethyl-2-pyridylmethyl)-7-(2-furyl)-3H-[1,2,3]triazolo[4,5-d]pyrimidine-5-amine], 245.9 to 247 °C.

Another data set has as its target human adenosine A2A receptors (Homo sapiens, UniProt P29274). Kind of data set: Binding affinities at hA2A receptors, displacement of [3H]-CGS 21680. An excerpt: Adenosine Receptor Binding Binding Affinities at hA2A Receptors
On the technique in general: Loss of bound radioactivity is the signal in a displacement assay; it reports binding, not function.
In the case of `Nc1nc(-c2ccco2)c2nnn(Cc3ccc(O)cc3)c2n1` [Example 221, 3-(4-Hydroxybenzyl)-7-(2-furyl)-3H-[1,2,3]triazolo[4,5-d]pyrimidine-5-amine], the Ki turned out to be 2 nM. On the same count and under the same terms, as for `Nc1nc(-c2ccco2)c2nnn(Cc3ccccc3N)c2n1` [Example 13, 3-(2-aminobenzyl)-7-(2-furyl)-3H-[1,2,3]triazolo[4,5-d]pyrimidine-5-amine], the figure is 2 nM; as for `N#Cc1cccc(Cn2nnc3c(-c4ccco4)nc(N)nc32)c1` [Example 15, 3-(3-cyanobenzyl)-7-(2-furyl)-3H-[1,2,3]triazolo[4,5-d]pyrimidine-5-amine], 4 nM. For `Nc1nc(-c2ccco2)c2nnn(Cc3ccc(Cl)s3)c2n1` [Example 8, 3-(5-chloro-2-thienyl)methyl-7-(2-furyl)-3H-[1,2,3]triazolo[4,5-d]pyrimidine-5-amine], the inhibition constant Ki worked out at 3 nM.

Consider `Nc1nc(-c2ccco2)c2nnn(Cc3ccccc3[N+](=O)[O-])c2n1` [Example 12, 7-(2-furyl)-3-(2-nitrobenzyl)-3H-[1,2,3]triazolo[4,5-d]pyrimidine-5-amine], for which the affinity, expressed as Ki, was 7 nM. `COc1cccc(Cn2nnc3c(-c4ccco4)nc(N)nc32)c1` [Example 11, 7-(2-furyl)-3-(3-methoxybenzyl)-3H-[1,2,3]triazolo[4,5-d]pyrimidine-5-amine] yielded a Ki of 2 nM.

The record behind these values is patent publication US7589097B2, “Triazol[4,5-d] pyramidine derivatives and their use as purinergic receptor antagonists” (Vernalis Research Limited, priority 2001, dated 2009).
